The text below walks through data of patent US7524930B2, “Tumor antigen” (Green Peptide Co., Ltd, priority 2003, dated 2009).

The test system of series [1] is peripheral blood mononuclear cells derived from a cancer patient. Format: cell-based, human. As for the experimental part:
Moreover, CTL-activating ability of these 19 peptides was directly examined in a ^51Cr-releasing test using toxicity to the target cells as an indicator. Specifically, the above-described PBMC, in which CTL was induced, was further recultured to proliferate in the presence of autologous APC, IL-2, and a corresponding peptide. At about day 21 to 28 after the start of reculturing, PBMC was collected and cytotoxicity thereof was tested again by measuring IFN-γ and by a 6-h ^51Cr-releasing test. PBMC of the cancer patient, which was stimulated by these peptides, lysed the HLA-A2^+ tumor cells. However, the autologous EBV-B cells and the T cells stimulated by PHA, both of which were derived from normal cells and were expressing HLA-A2, and the HLA-A2^− tumor cell RERF-LC-MS, were not lysed.

In series [2] the test system is Panc-1 cells and YPK-3 cells. Kind of series: 51Cr-releasing test of CTLs induced by KM-PA-2 peptides (Example 8). Format: cell-based, human. Conditions: result in words; for Lysis of HLA-A2- tumor cell and normal cells by peptide-induced CTLs: PaCa-2, EBV-B cell line OKAB2, PHA-stimulated T cells; for Lysis of HLA-A2+ tumor cells by peptide-induced CTLs: Panc-1 cells and YPK-3 cells. An excerpt: The ability of the synthesized peptide to induce CTL from the peripheral blood mononuclear cells of the colon cancer patient, from whom OK-CTLp was obtained, was examined in the same way as that in Example 6. As a result, as shown in FIGS. 20A-20B, PBMC that was stimulated in vitro using any one of peptides P33 to P41 (SEQ ID NO:33 to SEQ ID NO:41) derived from KM-PA-2 and peptides P42 to P44 (SEQ ID NO:42 to SEQ ID NO:44) derived from KM-PA-4, produced IFN-γ through recognition of the T2 cells (left-hand figure of FIGS. 20A-20B,) which were pulsed with the peptide corresponding to that used for stimulation of the PBMC, and the Panc-1 cell (right-hand of FIGS. 20A-20B,) which is the HLA-A2^+ tumor cell. However, the PBMC reacted […] to the HLA-A2^− tumor cell. […] In addition, cytotoxicity of these CTLs induced by the peptides was directly confirmed by the ^51Cr-releasing test in the same way as that in Example 6. FIGS. 21A-21C show a representative example of the result. As shown in FIGS. 21A-21C, CTLs induced from PBMC of the cancer patient by P35, P39, or P40 lysed Panc-1 cells and YPK-3 cells, both of which are HLA-A2^+ tumor cells. However, the HLA-A2^− tumor cell PaCa-2, the EBV-B cell line OKAB2, and the T cells stimulated by PHA, was not lysed.

Another series relates to OK-CTLp or OK-CTL clone. The series is described as follows: Recognition of peptide-pulsed T2 cells by OK-CTLp or OK-CTL clone (IFN-γ ELISA). The series is classed as cell-based, human. For orientation: In an ELISA, binding on a coated surface is turned into a signal by an enzyme label.
Series [3] has as its system human peripheral blood mononuclear cells (PBMC). Kind of series: CTL induction by peptide from PBMC of HLA-A2-positive cancer patients and healthy individuals, IFN-γ against peptide-pulsed T2 cells (Example 6). Conditions: for INF-γ production: peptide-pulsed T2 cells; for Patients in whom peptide-specific HLA-A2-restricted CTL were induced from PBMC: sixteen HLA-A2-positive cancer patients. Format: cell-based. As for the experimental part: For six peptides (P21, P22, P24, P26, P30, and P32) with a purity of 95% or higher among peptides from P20 to P32 derived from gene 7 and CPSF among the tumor antigen peptide obtained in Example 4, the activity to induce CTL in vitro from human peripheral blood mononuclear cells (PBMC) was examined using IFN-γ production as an indicator. PBMC used was prepared from each peripheral blood of sixteen HLA-A2-positive cancer patients (4 patients with pancreatic cancer, seven patients with stomach cancer, and 5 patients with colon cancer) and six healthy individuals. Specifically, 1×10^5 PBMC was added to each well of 96-well U-bottom type microculture plate (Nunc Corp.) and incubated together with 10 μM of each of the above-described peptides in 200 μl culture medium. The culture medium consisted of 45% RPMI-1640, 45% AIM-V (Invitrogen Corp.,) 10% fetal calf serum (FCS), 100U/ml of human interleukin-2, and […] MEM nonessential amino acid solution (Invitrogen Corp.). At day 4 and day 7 after the start of culturing, half of the culture medium was removed and replaced with the above-described composition containing each corresponding peptide. At day 10 after the start of culturing, the cells were collected and washed, followed by reacting with T2 cells, which were pulsed with each corresponding peptide, to measure the amount of IFN-γ produced.

Series [4] deals with Panc-1 pancreatic adenocarcinoma cell (HLA-A2). Kind of series: 6-h 51Cr-releasing test of peptide-stimulated PBMC against Panc-1 (Example 6). Format: cell-based, human. As for the experimental part:
Meanwhile, the above-described cells cultured for 10 days after stimulation by the peptide were further cultured for 10 days. The cytotoxicity of the obtained cells against the Panc-1 pancreatic adenocarcinoma cell (HLA-A2) was measured by the standard 6-h ^51Cr-releasing test in an E/T ratio of 10:1. The results obtained are presented as % specific lysis (table 7). Together with this step, cytotoxicity against SSTW-9 tumor cell as the HLA-A2^− tumor cell was measured to use as a background that was subtracted from the above-described result.

Where [5] appears, read: concentration of peptide 0.1 μM.
Where [6] appears, read: PBMC of colon cancer patient 12.
The mark [7] stands for this setting: PBMC of colon cancer patient 13.
[8] abbreviates: PBMC of colon cancer patient 14.
[9] abbreviates: PBMC of colon cancer patient 15.
[10] abbreviates: PBMC of colon cancer patient 16.
[11] abbreviates: PBMC of pancreatic cancer patient 1.
[12] abbreviates: PBMC of pancreatic cancer patient 2.
[13] abbreviates: PBMC of pancreatic cancer patient 3.
Setting [14] is: PBMC of pancreatic cancer patient 4.
Where [15] appears, read: PBMC of stomach cancer patient 5.
The mark [16] stands for this setting: PBMC of stomach cancer patient 6.
The mark [17] stands for this setting: PBMC of stomach cancer patient 7.
Where [18] appears, read: PBMC of stomach cancer patient 8.
The mark [19] stands for this setting: PBMC of stomach cancer patient 9.
Setting [20] is: PBMC of stomach cancer patient 10.
Where [21] appears, read: PBMC of stomach cancer patient 11.
Setting [22] is: PBMC of colon cancer patient 13, Panc-1, E/T 10:1.
[23] abbreviates: PBMC of pancreatic cancer patient 4, Panc-1, E/T 10:1.

Peptide text beside a SMILES is read from it.

As to `CC[C@H](C)[C@H](NC(=O)[C@@H](NC(=O)[C@@H](N)CCCNC(=N)N)[C@@H](C)CC)C(=O)N[C@@H](Cc1ccc(O)cc1)C(=O)N[C@@H](CC(=O)O)C(=O)N[C@@H](CCCNC(=N)N)C(=O)N[C@@H](CCCCN)C(=O)N[C@@H](Cc1ccccc1)C(=O)N[C@@H](CC(C)C)C(=O)O` [Peptide P14] (H-RIIYDRKFL-OH), the “Cytotoxicity of peptide-stimulated PBMC to the autologous EBV-B cells” value in series [1] is given as “showed cytotoxicity”.
On the same count and under the same terms, with `CC[C@H](C)[C@H](N)C(=O)N[C@H](C(=O)N[C@@H](Cc1ccc(O)cc1)C(=O)N[C@@H](CC(=O)O)C(=O)N[C@@H](CCCNC(=N)N)C(=O)N[C@@H](CCCCN)C(=O)N[C@@H](Cc1ccccc1)C(=O)N[C@@H](CC(C)C)C(=O)N[C@@H](CCSC)C(=O)O)[C@@H](C)CC` [Peptide P15] (H-IIYDRKFLM-OH) the entry was “showed cytotoxicity”.
On to `CC(C)C[C@H](NC(=O)CN)C(=O)N[C@@H](CC(C)C)C(=O)N[C@@H](Cc1ccccc1)C(=O)N[C@@H](CC(C)C)C(=O)N[C@@H](Cc1c[nH]cn1)C(=O)N[C@H](C(=O)N[C@@H](CCCNC(=N)N)C(=O)N[C@H](C(=O)O)[C@@H](C)O)[C@@H](C)O` [Peptide P17] (H-GLLFLHTRT-OH), for which, in series [1], the “Cytotoxicity of peptide-stimulated PBMC to the autologous EBV-B cells” value is on record as “showed cytotoxicity”.
For “DLLQNPLLV (Designed peptide having an ability to activate HLA-A2 restricted Cytotoxic T lymphocytes) [Peptide P39, KM-PA-2 585-593]”, in series [2], the “Lysis of HLA-A2- tumor cell and normal cells by peptide-induced CTLs” value is reported as “not lysed”; the “Lysis of HLA-A2+ tumor cells by peptide-induced CTLs” value is reported as “lysed”.
Taken in the same sequence, the figures for “LLQNPLLVPV (Designed peptide having an ability to activate HLA-A2 restricted Cytotoxic T lymphocytes) [Peptide P40, KM-PA-2 586-595]” were “not lysed” and “lysed”.
“LMLQNALTIM (LMLQNALTTM; Designed peptide having an ability to activate HLA-A2 restricted Cytotoxic T lymphocytes) [Peptide P30, Gene 7 1359-1368]”: the IFN-γ production is 88 pg/mL in the series on OK-CTLp or OK-CTL clone (setting [5]) and 7001 pg/mL in the series on OK-CTLp or OK-CTL clone (concentration of peptide 1 μM). For the same compound, the INF-γ production came out at 0 pg/mL in series [3] (setting [6]); 41 pg/mL in series [3] (setting [7]); 33 pg/mL in series [3] (setting [8]); 0 pg/mL in series [3] (setting [9]); 68 pg/mL in series [3] (setting [10]); 0 pg/mL in series [3] (PBMC of healthy individual HD1). The INF-γ production came to 0 pg/mL in series [3] (PBMC of healthy individual HD2); 14 pg/mL in series [3] (PBMC of healthy individual HD3); 0 pg/mL in series [3] (PBMC of healthy individual HD4); 0 pg/mL in series [3] (PBMC of healthy individual HD5); 0 pg/mL in series [3] (PBMC of healthy individual HD6); 0 pg/mL in series [3] (setting [11]). Besides, the INF-γ production was 12 pg/mL in series [3] (setting [12]); 0 pg/mL in series [3] (setting [13]); 73 pg/mL in series [3] (setting [14]); 0 pg/mL in series [3] (setting [15]); 0 pg/mL in series [3] (setting [16]); 0 pg/mL in series [3] (setting [17]). The INF-γ production in series [3] (setting [18]) turned out to be 146 pg/mL; in series [3] (setting [19]), 92 pg/mL; in series [3] (setting [20]), 46 pg/mL; in series [3] (setting [21]), 0 pg/mL. Also, the “Patients in whom peptide-specific HLA-A2-restricted CTL were induced from PBMC” value in series [3] worked out at 44%. For the same compound, the “% specific lysis” value in series [4] (setting [22]) was 12%; in series [4] (PBMC of colon cancer patient 14, Panc-1, E/T 10:1), 10%; in series [4] (setting [23]) it was 11%; in series [4] (PBMC of stomach cancer patient 8, Panc-1, E/T 10:1) it was 18%; in series [4] (PBMC of stomach cancer patient 10, Panc-1, E/T 10:1), 26%.
On to QLGQGNLKV [Peptide P23], for which the IFN-γ production in the series on OK-CTLp or OK-CTL clone (setting [5]) came out at 6360 pg/mL; with OK-CTLp or OK-CTL clone (concentration of peptide 1 μM), 0 pg/mL; with OK-CTLp or OK-CTL clone (concentration of peptide 10 μM), 345 pg/mL; with OK-CTLp or OK-CTL clone (concentration of peptide 50 μM), 160 pg/mL. The INF-γ production in series [3] (setting [6]) came out at 71 pg/mL; in series [3] (setting [7]), 138 pg/mL; in series [3] (setting [8]) it was 48 pg/mL; in series [3] (setting [9]) it was 14 pg/mL; in series [3] (setting [10]), 0 pg/mL; in series [3] (PBMC of healthy individual HD1), 0 pg/mL. For the same compound, the INF-γ production in series [3] (PBMC of healthy individual HD2) was 13 pg/mL; in series [3] (PBMC of healthy individual HD3) it was 8 pg/mL; in series [3] (PBMC of healthy individual HD4), 6 pg/mL; in series [3] (PBMC of healthy individual HD5) it was 83 pg/mL; in series [3] (PBMC of healthy individual HD6), 45 pg/mL; in series [3] (setting [11]), 0 pg/mL. The INF-γ production in series [3] (setting [12]) was 41 pg/mL; in series [3] (setting [13]), 0 pg/mL; in series [3] (setting [14]) it was 72 pg/mL; in series [3] (setting [15]) it was 0 pg/mL; in series [3] (setting [16]), 0 pg/mL; in series [3] (setting [17]), 46 pg/mL. Further, the INF-γ production in series [3] (setting [18]), in series [3] (setting [19]), in series [3] (setting [20]) and in series [3] (setting [21]) was 0 pg/mL throughout. The “Patients in whom peptide-specific HLA-A2-restricted CTL were induced from PBMC” value in series [3] came to 25%. Moreover, the “% specific lysis” value in series [4] (PBMC of colon cancer patient 12, Panc-1, E/T 10:1) was 18%; in series [4] (setting [22]), 10%; in series [4] (PBMC of pancreatic cancer patient 2, Panc-1, E/T 10:1, SSTW-9 background subtracted), 53%; in series [4] (setting [23]) it was 10%; in series [4] (PBMC of stomach cancer patient 7, Panc-1, E/T 10:1) it was 10%.
“WAQEDPNAV (Designed peptide having an ability to activate HLA-A2 restricted Cytotoxic T lymphocytes) [Peptide P35, KM-PA-2 172-180]”: in series [2], the “Lysis of HLA-A2- tumor cell and normal cells by peptide-induced CTLs” value is “not lysed”; the “Lysis of HLA-A2+ tumor cells by peptide-induced CTLs” value was “lysed”.
